Experimental data reported in article PMC10779116, “Madurastatins with Imidazolidinone Rings: Natural Products or Side-Reaction Products from Extraction Solvents?” (International Journal of Molecular Sciences, 2023).

What was measured:
[1] = test system: L. donovani MHOM/ET/67/HU3; test: Antiparasitic activity on L. donovani: image-based intracellular assay in infected differentiated THP-1 cells; type: cell-based, Leishmania donovani; details: L. donovani in PMA-differentiated THP-1 host cells, 3 days, normalized by controls; for Inhibition norm. inf. ratio IC50: number of infected host cells; for IC50: Leishmania donovani, 72 h, number of parasites in host cell cytoplasm, read-out: Inhibition norm. para. num. IC50
Experimental: All compounds isolated were tested against Trypanosoma cruzi and Leishmania donovani, using the liquid microdilution method. Madurastatins were not active against L. donovani at the highest concentration tested, showing IC50 values higher than 50 µM.
(§1) Human monocyte cell line THP-1 (ATCC TIB-202) was purchased from the American Type Culture Collection (ATCC). The assay for activity against L. donovani was performed as previously described. L. donovani MHOM/ET/67/HU3 was cultivated as promastigotes at 28 °C in M199 (Sigma-Aldrich, St. Louis, MO, USA) with 40 mM HEPES, 0.1 mM adenine, 0.0001% biotin, and 4.62 mM NaHCO3, supplemented with 10% heat-inactivated FBS and incubated 6 days before infection to enrich the proportion of metacyclic promastigotes. THP-1 was cultivated in RPMI medium (Thermo Fisher Scientific) supplemented with 10% heat-inactivated FBS and differentiated with 50 ng/mL of phorbol 12-myristate 13-acetate (PMA, Sigma-Aldrich) before infection. Purified L. donovani parasites were seeded with 1:20 infection ratio in 384-well plates and incubated for 24 h, then followed by the treatment of 4 μM amphotericin B (Sigma-Aldrich) as positive control, 0.5% DMSO as negative control, and tested samples. After additional incubation for 3 days at 37 °C, 5% CO2, the cells and parasites were fixed with 4% PFA and stained with 5 μM DRAQ5. Fluorescent images were acquired from each well using an automated confocal microscope (Operetta CLS) with a […] laser at 20× objective.
(§2) The acquired images were analyzed with Columbus software (v2.3) (PerkinElmer) to quantify cell numbers, parasites numbers, and infection ratio. Data were normalized by positive and negative controls. The activity of the tested samples was determined in terms of IC50 and CC50 calculated with XLfit software (v5) (IDBS, Boston, MA, USA). The quality of the assay data was assessed with Z’ factor, assay windows, and CV [37].

U2OS cells = test: Host cell cytotoxicity (cell ratio) in the T. cruzi assay; type: cell-based, Human; details: number of U2OS host cells in T. cruzi assay, 3 days
From the text: (§3) Human osteosarcoma cell line U2OS (ATCC HTB-96) and rhesus monkey kidney epithelial cell LLM-MK2 (ATCC CCL-7) were purchased from the American Type Culture Collection (ATCC, Manassas, VA, USA). T. cruzi Y strain was maintained as tissue culture trypomastigotes (TCT) by infection to LLC-MK2 cell line. The U2OS human cell was cultivated in DMEM-high-glucose media supplemented with 10% heat-inactivated fetal bovine serum (FBS, Thermo Fisher Scientific, Waltham, MA, USA). To visualize amastigote replication, U2OS cells were seeded in a 384-well plate (4 × 10^3 cells/well) and infected with 5 × 10^4 TCT parasites in DMEM-low-glucose media supplemented with 2% heat-inactivated FBS as previously described. The reference drug 400 μM of benznidazole (positive control), 0.5% DMSO (negative control), and the tested samples were treated on the day of assay and then incubated for 3 days at 37 °C, 5% CO2. After incubation was completed, the cells and parasites were fixed with 4% paraformaldehyde (PFA), and the DNA was stained with 5 μM DRAQ5 (Biostatus, Shepshed, Leicestershire, UK) followed by image acquisition using an automated confocal microscope (Operetta CLS, PerkinElmer, Waltham, MA, USA) with a […] laser at 20× objective.
as §2

THP-1 cells = test: Host cell cytotoxicity (cell ratio) in the L. donovani assay; type: cell-based, Human; details: number of THP-1 host cells in L. donovani assay, 3 days
Experimental: as §1, §2

T. cruzi Y strain = test: Antiparasitic activity on T. cruzi: image-based intracellular amastigote assay in infected U2OS cells; type: cell-based, Trypanosoma cruzi; details: T. cruzi in U2OS host cells, 3 days, normalized by DMSO and benznidazole controls; for Inhibition norm. inf. ratio IC50: number of infected host cells; for IC50: Trypanosoma cruzi, 72 h, number of parasites in host cell cytoplasm, read-out: Inhibition norm. para. num. IC50
Experimental: as §3, with “All compounds isolated were tested against Trypanosoma cruzi and Leishmania donovani, using the liquid microdilution method. Madurastatins were not active against L. donovani at the highest concentration tested, showing IC50 values higher than 50 µM. […] Human” for “Human”, “objective. The acquired images were analyzed with Columbus software (v2.3) (PerkinElmer) to quantify cell numbers, parasites numbers, and infection ratio. Data were normalized by positive and negative controls. The activity of the tested samples was determined in terms of IC50 and CC50 calculated with XLfit software (v5) (IDBS, Boston, MA, USA). The quality of the assay data was assessed with Z’ factor, assay windows, and CV [37].” for “objective.”

Row | SMILES | Inhibition norm. inf. ratio IC50 [1] [µM] | IC50 [1] [µM] | Cell ratio (%) CC50 (U2OS cells) [µM] | Cell ratio (%) CC50 (THP-1 cells) [µM] | Inhibition norm. inf. ratio IC50 (T. cruzi Y strain) [µM] | IC50 (T. cruzi Y strain) [µM]
1 | CNC(CCCN(O)C(=O)CCNC(=O)CNC(=O)C1COC(c2ccccc2O)=N1)C(=O)NC1CCCN(O)C1=O (stereo not drawn) [C1 (1), madurastatin C1] | >50 | > 50 | >50 | >50 | >50 | 30.8
2 | CC1N(C)C(CCCN(O)C(=O)CCNC(=O)CNC(=O)C2COC(c3ccccc3O)=N2)C(=O)N1C1CCCN(O)C1=O (stereo not drawn) [D1 (4), madurastatin D1] | >50 | > 50 | 46.77 | >50 | >50 | 27.2
3 | CN1C(CCCN(O)C(=O)CCNC(=O)CNC(=O)C2COC(c3ccccc3O)=N2)C(=O)N(C2CCCN(O)C2=O)C1(C)C (stereo not drawn) [D2 (5), madurastatin D2] | >50 | > 50 | 24.74 | >50 | >50 | 8.93
4 | CN1[C@@H](CCCN(O)C(=O)CCNC(=O)CNC(=O)[C@@H](CO)NC(=O)c2ccccc2O)C(=O)N([C@H]2CCCN(O)C2=O)C1(C)C [H2 (2), madurastatin H2] | >50 | > 50 | >50 | >50 | >50 | > 50
5 | C[C@@H]1N(C)[C@@H](CCCN(O)C(=O)CCNC(=O)CNC(=O)[C@H]2COC(c3ccccc3O)=N2)C(=O)N1[C@H]1CCCN(O)C1=O [33-epi D1 (3), 33-epi-madurastatin D1] | >50 | > 50 | >50 | >50 | >50 | 46.1
